Read-outs that look alike come from different tables or passages of the source.
Tests used:
Experiment in all cases: cells
2008 cells = system: 2008 cells; parameters: species or system C13*, A2780, A2780/CP; growth inhibition of human ovarian cancer cell lines after 72 h treatment, cell counts; conditions: 72 h
Protocol: (§1) The drug concentrations used in the combinations were based on the IC50s. These are reported in Table S3 of the Supplementary Information. The effects of binary combinations were determined with both drug concentrations lower than their IC50s and were characterized in terms of the synergism quotient. […] With 5 μM 5FU alone, cell growth inhibitions were 24.7, 21.2, 28.3, and 27.1% for 2008, C13*, A2780, and A2780/CP, respectively. […] The bars represent the mean of duplicate cell counts on three separate experiments. A quotient > 1 indicates synergism, =1, additivity <1 antagonism. Error bars represent SEM.

A2780/CP cells = system: A2780/CP cells; parameters: species or system 2008, C13*; growth inhibition of human ovarian cancer cell lines after 72 h treatment, cell counts; conditions: A2780C/P, 72 h
Protocol: as §1

A2780 cells = system: A2780 cells; parameters: species or system 2008, C13*, A2780/CP; growth inhibition of human ovarian cancer cell lines after 72 h treatment, cell counts; conditions: Homo sapiens, A2780, 72 h
Protocol: as §1

C13* cells = system: C13* cells; parameters: species or system 2008, A2780, A2780/CP; growth inhibition of human ovarian cancer cell lines after 72 h treatment, cell counts; conditions: Homo sapiens, C13, 72 h
Protocol: as §1

Row | Structure (SMILES) | IC50 (2008 cells; read-out: 5-FU (µM) IC50) [µM] | IC50 (A2780/CP cells; read-out: 5-FU (µM) IC50) [µM] | IC50 (A2780 cells; read-out: 5-FU (µM) IC50) [µM] | IC50 (C13* cells; read-out: 5-FU (µM) IC50) [µM] | IC50 (2008 cells; read-out: RTX (nM) IC50) [µM] | IC50 (A2780/CP cells; read-out: RTX (nM) IC50) [µM] | IC50 (A2780 cells; read-out: RTX (nM) IC50) [µM] | IC50 (C13* cells; read-out: RTX (nM) IC50) [µM]
1 | O=c1[nH]cc(F)c(=O)[nH]1 [5-FU, 5-fluorouracil] | 6.3 ± 0.4 | 12.9 ± 1.1 | 9.5 ± 0.8 | 12.4 ± 0.8 |  |  |  | 
2 | Cc1nc(=O)c2cc(CN(C)c3ccc(C(=O)N[C@@H](CCC(=O)O)C(=O)O)s3)ccc2[nH]1 [RTX, N-[(5-{methyl[(2-methyl-4-oxo-1,4-dihydroquinazolin-6-yl)methyl]amino}-2-thienyl)carbonyl]-L-glutamic acid] |  |  |  |  | 0.0095 ± 0.001 | 0.0311 ± 0.0029 | 0.0086 ± 0.0012 | 0.0262 ± 0.003
